CC(C)(C)OC(=O)NN(C[C@H](O)[C@H](Cc1ccccc1)NC(=O)OCc1ccccc1)C1CCCCC1 [Example 31, t-Butyl 3-cyclohexyl-3-[(2S, 3S)-2-hydroxy-3-(phenylmethoxycarbonyl)amino-4-phenylbutyl]carbazate]
melting point: 142 to 143 °C

Reference: patent publication US20040266871A1, “Methods for treating alzheimer's disease using quinaldoyl-amine derivatives of oxo-and hydroxy-substituted hydrocarbons” (priority 2001, published 2004)
